Laboratory results from ChEMBL document CHEMBL1201862, “PubChem BioAssay data set” (2004).
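These data come from cells grown in 96-well plates and exposed to compound for 48 hours at five concentrations. Abbreviation: GI50, concentration required for 50% inhibition of growth.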 Active and inactive are the calls of the source. Rule as the data show it: active = GI50 up to about 1.1 µM and inactive = higher.

What was measured:
Assay in all cases: NCI tumour cell line growth inhibition, 48 h
HOP-62 = test system: HOP-62
OVCAR-4 = test system: OVCAR-4
UACC-257 = test system: UACC-257
SNB-75 = test system: SNB-75
HCT-15 = test system: HCT-15
A549 = test system: A549
MOLT-4 = test system: MOLT-4
UO-31 = test system: UO-31
CCRF-CEM = test system: CCRF-CEM
SK-OV-3 = test system: SK-OV-3
M19-MEL = test system: M19-MEL
HL-60 = test system: HL-60
K562 = test system: K562
OVCAR-8 = test system: OVCAR-8
NCI-H226 = test system: NCI-H226
HCT-116 = test system: HCT-116
Hs-578T = test system: Hs-578T
MDA-N = test system: MDA-N
T47D = test system: T47D
NCI/ADR-RES = test system: NCI/ADR-RES

Row | Structure (SMILES) | GI50 (HOP-62) | GI50 (OVCAR-4) | GI50 (UACC-257) | GI50 (SNB-75) | GI50 (HCT-15) [µM] | GI50 (A549) | GI50 (MOLT-4) | GI50 (UO-31) | GI50 (CCRF-CEM) | GI50 (SK-OV-3) | GI50 (M19-MEL) | GI50 (HL-60) | GI50 (K562) | GI50 (OVCAR-8) | GI50 (NCI-H226) | GI50 (HCT-116) | GI50 (Hs-578T) | GI50 (MDA-N) | GI50 (T47D) | GI50 (NCI/ADR-RES)
1 | C/C(=N\Nc1ccc([N+](=O)[O-])cc1)C(=O)N(C)Nc1ccccc1 | > 100 µM (inactive) | 47.2 µM (inactive) | 31.6 µM (inactive) | 27.6 µM (inactive) | 48.1 | 40.5 µM (inactive) | 41 µM (inactive) | 39.9 µM (inactive) | > 100 µM (inactive) | > 100 µM (inactive) | 69.5 µM (inactive) | 65.3 µM (inactive) | 63.2 µM (inactive) | 51.4 µM (inactive) | 38.9 µM (inactive) | – | – | – | – | –
2 | NC(=O)c1c2c(cc3c(=O)c4ccccc4[nH]c13)CCCC2 | > 100 µM (inactive) | > 100 µM (inactive) | > 100 µM (inactive) | 43.1 µM (inactive) | > 100 | > 100 µM (inactive) | > 61.2 µM (inactive) | > 100 µM (inactive) | > 65 µM (inactive) | > 100 µM (inactive) | > 100 µM (inactive) | > 100 µM (inactive) | > 65.2 µM (inactive) | > 97.3 µM (inactive) | > 100 µM (inactive) | > 100 µM (inactive) | – | – | – | –
3 | CC1CC2C3CC(F)C4=CC(=O)C=CC4(C)C3(F)C(O)CC2(C)C1(O)C(=O)CO (stereo unspecified) | > 100 µM (inactive) | > 100 µM (inactive) | > 100 µM (inactive) | > 100 µM (inactive) | > 100 | > 100 µM (inactive) | > 100 µM (inactive) | > 100 µM (inactive) | 0.0112 µM (active) | < 0.01 µM (active) | > 100 µM (inactive) | > 100 µM (inactive) | > 100 µM (inactive) | – | > 100 µM (inactive) | > 100 µM (inactive) | – | – | – | –
4 | N#CC(C(=O)CCC(=O)C(C#N)c1ccccc1)c1ccccc1 (stereo unspecified) | > 100 µM (inactive) | > 100 µM (inactive) | > 100 µM (inactive) | > 100 µM (inactive) | > 100 | > 100 µM (inactive) | > 100 µM (inactive) | > 100 µM (inactive) | > 100 µM (inactive) | > 100 µM (inactive) | > 100 µM (inactive) | > 100 µM (inactive) | > 100 µM (inactive) | > 100 µM (inactive) | > 100 µM (inactive) | > 100 µM (inactive) | – | – | – | –
5 | CC(=O)NC1=C(NCCC(C)C)C(=O)c2ccccc2C1=O | > 50 µM (inactive) | > 50 µM (inactive) | > 50 µM (inactive) | > 50 µM (inactive) | > 50 | > 50 µM (inactive) | > 50 µM (inactive) | > 50 µM (inactive) | > 50 µM (inactive) | > 50 µM (inactive) | > 50 µM (inactive) | > 50 µM (inactive) | > 50 µM (inactive) | > 50 µM (inactive) | > 50 µM (inactive) | > 50 µM (inactive) | – | – | – | –
6 | COC1(OC)CCCCC2c3cccc(OC(C)=O)c3C21OC(C)=O (stereo unspecified) | > 100 µM (inactive) | > 100 µM (inactive) | > 100 µM (inactive) | > 100 µM (inactive) | 73.8 | > 100 µM (inactive) | 64.3 µM (inactive) | 51.6 µM (inactive) | > 100 µM (inactive) | > 100 µM (inactive) | > 100 µM (inactive) | 65.8 µM (inactive) | 55.3 µM (inactive) | > 100 µM (inactive) | > 100 µM (inactive) | 57.9 µM (inactive) | – | – | – | –
7 | COC(=O)C1=CC2OC1(C)C1(CC1)C2=O (stereo unspecified) | > 100 µM (inactive) | 11.6 µM (inactive) | 16.1 µM (inactive) | 19.8 µM (inactive) | 15.9 | 24.3 µM (inactive) | 6.92 µM (inactive) | 22.1 µM (inactive) | 5.6 µM (inactive) | 76.9 µM (inactive) | 21 µM (inactive) | 4.02 µM (inactive) | 12.2 µM (inactive) | 16 µM (inactive) | 21.6 µM (inactive) | 13.8 µM (inactive) | – | – | – | –
8 | COC(=O)c1c/c(=N\NC(=O)CC(=O)Nc2ccccc2OC)c2ccccc2o1 | > 100 µM (inactive) | > 100 µM (inactive) | – | > 100 µM (inactive) | > 100 | 74.8 µM (inactive) | 75.7 µM (inactive) | > 100 µM (inactive) | – | > 100 µM (inactive) | > 100 µM (inactive) | > 100 µM (inactive) | 54.2 µM (inactive) | – | > 100 µM (inactive) | > 100 µM (inactive) | – | – | – | –
9 | CN(C)CCNc1ccc2ncn3c4ccccc4c(=O)c1c23 | 4.46 µM (inactive) | 1.99 µM (inactive) | 2.97 µM (inactive) | 3.25 µM (inactive) | 2.85 | 1.82 µM (inactive) | 0.615 µM (active) | 1.53 µM (inactive) | 2.25 µM (inactive) | 2.09 µM (inactive) | 2.96 µM (inactive) | 7.73 µM (inactive) | > 100 µM (inactive) | 1.15 µM (inactive) | 1.91 µM (inactive) | 0.459 µM (active) | – | – | – | –
10 | O=S(=O)(O)SC/C=C\CSS(=O)(=O)O | > 100 µM (inactive) | > 100 µM (inactive) | > 100 µM (inactive) | 60.4 µM (inactive) | > 100 | 44.4 µM (inactive) | > 100 µM (inactive) | > 100 µM (inactive) | – | 57.8 µM (inactive) | 98.9 µM (inactive) | > 100 µM (inactive) | > 100 µM (inactive) | > 100 µM (inactive) | 49.7 µM (inactive) | > 100 µM (inactive) | – | – | – | –
11 | Cc1cc(O)nc(NN2C(Cl)C(=O)C2c2ccccc2O)n1 (stereo unspecified) | 1.76 µM (inactive) | 8.49 µM (inactive) | 3.4 µM (inactive) | 2.54 µM (inactive) | 0.65 | 4.26 µM (inactive) | 0.585 µM (active) | 2.06 µM (inactive) | 0.547 µM (active) | 1.44 µM (inactive) | 3.84 µM (inactive) | 0.689 µM (active) | 1.08 µM (active) | 2.66 µM (inactive) | 2.39 µM (inactive) | 2.14 µM (inactive) | 26.8 µM (inactive) | 4.36 µM (inactive) | 3.99 µM (inactive) | 1.54 µM (inactive)
12 | O=C1CC(c2ccc(Cl)cc2)=Nc2ccccc2N1 | 40.6 µM (inactive) | 28.6 µM (inactive) | 80.7 µM (inactive) | 20.6 µM (inactive) | 65.8 | > 100 µM (inactive) | > 100 µM (inactive) | 48 µM (inactive) | 15.1 µM (inactive) | 32.7 µM (inactive) | > 100 µM (inactive) | 19.3 µM (inactive) | 40 µM (inactive) | 25.9 µM (inactive) | > 100 µM (inactive) | 28.6 µM (inactive) | – | – | – | –
13 | C[N+]1=C(c2cccnc2/C=N/O)OCC1(C)C | > 100 µM (inactive) | > 100 µM (inactive) | > 100 µM (inactive) | > 100 µM (inactive) | > 100 | > 100 µM (inactive) | > 100 µM (inactive) | > 100 µM (inactive) | > 100 µM (inactive) | > 100 µM (inactive) | > 100 µM (inactive) | > 100 µM (inactive) | > 100 µM (inactive) | > 100 µM (inactive) | < 0.01 µM (active) | > 100 µM (inactive) | – | – | – | –
14 | CCOC(=O)C1N(S(=O)(=O)c2ccc(C)cc2)CCC12c1ccccc1N(C(C)=O)C2C(/C=C/C(=O)OC)=C/C(=O)OC (stereo unspecified) | > 100 µM (inactive) | > 100 µM (inactive) | > 100 µM (inactive) | > 100 µM (inactive) | – | 84.1 µM (inactive) | – | > 100 µM (inactive) | > 100 µM (inactive) | > 100 µM (inactive) | > 100 µM (inactive) | 66.8 µM (inactive) | 85.3 µM (inactive) | > 100 µM (inactive) | > 100 µM (inactive) | > 100 µM (inactive) | – | – | – | –
15 | CCOC(=O)CCC(NC(=O)c1ccc(/N=C/c2nc3cc(C(F)(F)F)ccc3nc2-c2ccccc2)cc1)C(=O)OCC (stereo unspecified) | 12.9 µM (inactive) | 11.5 µM (inactive) | > 50 µM (inactive) | 5.04 µM (inactive) | > 50 | 25.1 µM (inactive) | > 50 µM (inactive) | > 50 µM (inactive) | > 50 µM (inactive) | 8.77 µM (inactive) | > 50 µM (inactive) | 8.91 µM (inactive) | > 50 µM (inactive) | 7.33 µM (inactive) | > 50 µM (inactive) | 6.56 µM (inactive) | – | – | – | –
16 | CCOc1ccccc1NC(=O)C(=O)CC(=O)c1c(C)[n+]([O-])c2ccccc2[n+]1[O-] | > 100 µM (inactive) | > 100 µM (inactive) | > 100 µM (inactive) | > 100 µM (inactive) | 67.1 | > 100 µM (inactive) | > 100 µM (inactive) | > 100 µM (inactive) | 52.8 µM (inactive) | > 100 µM (inactive) | 50.9 µM (inactive) | > 100 µM (inactive) | > 100 µM (inactive) | > 100 µM (inactive) | > 100 µM (inactive) | > 100 µM (inactive) | – | – | – | –
17 | CCOC(=O)C(C)(C)Oc1ccc2c(=O)cc(-c3ccccc3)oc2c1 | 18.5 µM (inactive) | – | 17.4 µM (inactive) | 19.1 µM (inactive) | 20 | 23.1 µM (inactive) | 13.8 µM (inactive) | 48.6 µM (inactive) | 18 µM (inactive) | > 100 µM (inactive) | 20.7 µM (inactive) | 14.1 µM (inactive) | 13 µM (inactive) | 23 µM (inactive) | 22.8 µM (inactive) | 17.3 µM (inactive) | – | – | – | –
18 | N#Cc1ccc(OCCSCCCCCCCCCCSCCOc2ccc(C#N)cc2)cc1 | > 100 µM (inactive) | – | 2.25 µM (inactive) | > 100 µM (inactive) | > 100 | > 100 µM (inactive) | > 100 µM (inactive) | 0.402 µM (active) | > 100 µM (inactive) | > 100 µM (inactive) | > 100 µM (inactive) | > 100 µM (inactive) | > 100 µM (inactive) | > 100 µM (inactive) | > 100 µM (inactive) | – | – | – | – | –
